The NIST ThermoML archive (doi:10.1016/j.jct.2016.01.017)
± gives the expanded uncertainty stated by the source.

Assay: activity coefficient (dimensionless); of the first substance listed, at infinite dilution; xn = mol fraction of the nth substance listed
Details: 100 kPa, Liquid, Chromatography, x1 = 0

Structure (SMILES) | activity coefficient (308.15 K) | activity coefficient (318.15 K) | activity coefficient (328.15 K) | activity coefficient (338.15 K) | activity coefficient (348.15 K) | activity coefficient (358.15 K) | activity coefficient (368.15 K)
C=CCCCCCC [oct-1-ene] + CCCC[n+]1ccc(C#N)cc1.O=S(=O)([N-]S(=O)(=O)C(F)(F)F)C(F)(F)F | 31.7 ± 2.7 | 30.1 ± 2.6 | 28.6 ± 2.5 | 27.3 ± 2.4 | 26.3 ± 2.3 | 25.3 ± 2.2 | 24.3 ± 2.1
CCCCCCCC [octane] + CCCC[n+]1ccc(C#N)cc1.O=S(=O)([N-]S(=O)(=O)C(F)(F)F)C(F)(F)F | 65 ± 5.6 | 59.9 ± 5.2 | 55.3 ± 4.8 | 51.3 ± 4.4 | 47.9 ± 4.1 | 45 ± 4 | 42.4 ± 3.7
CCCCCO [pentan-1-ol] + CCCC[n+]1ccc(C#N)cc1.O=S(=O)([N-]S(=O)(=O)C(F)(F)F)C(F)(F)F | 3.84 ± 0.33 | 3.58 ± 0.31 | 3.36 ± 0.29 | 3.15 ± 0.27 | 2.97 ± 0.26 | 2.81 ± 0.24 | 2.67 ± 0.23
CCCC(C)=O [pentan-2-one] + CCCC[n+]1ccc(C#N)cc1.O=S(=O)([N-]S(=O)(=O)C(F)(F)F)C(F)(F)F | 0.697 ± 0.06 | 0.739 ± 0.063 | 0.783 ± 0.066 | 0.824 ± 0.069 | 0.868 ± 0.072 | 0.909 ± 0.075 | 0.95 ± 0.078
CCC(=O)CC [pentan-3-one] + CCCC[n+]1ccc(C#N)cc1.O=S(=O)([N-]S(=O)(=O)C(F)(F)F)C(F)(F)F | 0.697 ± 0.06 | 0.746 ± 0.063 | 0.792 ± 0.066 | 0.84 ± 0.07 | 0.889 ± 0.074 | 0.936 ± 0.077 | 0.984 ± 0.081
CCCCC [pentane] + CCCC[n+]1ccc(C#N)cc1.O=S(=O)([N-]S(=O)(=O)C(F)(F)F)C(F)(F)F | 26.7 ± 2.3 | 24.2 ± 2.1 | 22 ± 1.9 | 20.2 ± 1.7 | 18.6 ± 1.6 | 17.2 ± 1.5 | 16 ± 1.4
CCCO [propan-1-ol] + CCCC[n+]1ccc(C#N)cc1.O=S(=O)([N-]S(=O)(=O)C(F)(F)F)C(F)(F)F | 2.38 ± 0.21 | 2.23 ± 0.19 | 2.1 ± 0.18 | 1.98 ± 0.17 | 1.88 ± 0.16 | 1.79 ± 0.15 | 1.7 ± 0.14
CC(C)O [propan-2-ol] + CCCC[n+]1ccc(C#N)cc1.O=S(=O)([N-]S(=O)(=O)C(F)(F)F)C(F)(F)F | 2.25 ± 0.19 | 2.08 ± 0.18 | 1.95 ± 0.17 | 1.83 ± 0.16 | 1.73 ± 0.15 | 1.63 ± 0.14 | 
CCCc1ccccc1 [propylbenzene] + CCCC[n+]1ccc(C#N)cc1.O=S(=O)([N-]S(=O)(=O)C(F)(F)F)C(F)(F)F | 3.8 ± 0.33 | 3.94 ± 0.34 | 4.07 ± 0.35 | 4.21 ± 0.36 | 4.33 ± 0.37 | 4.45 ± 0.38 | 4.58 ± 0.4
c1ccncc1 [pyridine] + CCCC[n+]1ccc(C#N)cc1.O=S(=O)([N-]S(=O)(=O)C(F)(F)F)C(F)(F)F | 0.47 ± 0.044 | 0.5 ± 0.046 | 0.53 ± 0.048 | 0.56 ± 0.05 | 0.591 ± 0.052 | 0.62 ± 0.054 | 0.65 ± 0.056
C=Cc1ccccc1 [styrene] + CCCC[n+]1ccc(C#N)cc1.O=S(=O)([N-]S(=O)(=O)C(F)(F)F)C(F)(F)F | 1.28 ± 0.11 | 1.36 ± 0.11 | 1.44 ± 0.12 | 1.52 ± 0.13 | 1.6 ± 0.14 | 1.67 ± 0.14 | 1.75 ± 0.15
C1CCOC1 [tetrahydrofuran] + CCCC[n+]1ccc(C#N)cc1.O=S(=O)([N-]S(=O)(=O)C(F)(F)F)C(F)(F)F | 0.622 ± 0.054 | 0.661 ± 0.057 | 0.701 ± 0.06 | 0.742 ± 0.063 | 0.779 ± 0.065 | 0.818 ± 0.068 | 0.858 ± 0.071
c1ccsc1 [thiophene] + CCCC[n+]1ccc(C#N)cc1.O=S(=O)([N-]S(=O)(=O)C(F)(F)F)C(F)(F)F | 0.916 ± 0.076 | 0.96 ± 0.08 | 1 ± 0.08 | 1.05 ± 0.09 | 1.1 ± 0.09 | 1.14 ± 0.09 | 1.18 ± 0.1
Cc1ccccc1 [toluene] + CCCC[n+]1ccc(C#N)cc1.O=S(=O)([N-]S(=O)(=O)C(F)(F)F)C(F)(F)F | 1.46 ± 0.12 | 1.54 ± 0.13 | 1.62 ± 0.14 | 1.7 ± 0.14 | 1.78 ± 0.15 | 1.86 ± 0.16 | 1.94 ± 0.17
O [water] + CCCC[n+]1ccc(C#N)cc1.O=S(=O)([N-]S(=O)(=O)C(F)(F)F)C(F)(F)F | 3.31 ± 0.29 | 3.01 ± 0.26 | 2.74 ± 0.24 | 2.52 ± 0.22 | 2.33 ± 0.2 | 2.16 ± 0.19 | 2 ± 0.17
